Reference: PMC8996404, “The pharmacokinetics of buserelin after intramuscular administration in pigs and cows” (BMC Veterinary Research, 2022)
Read-outs that look alike come from different tables or passages of the source. Marks after values point to notes of the source that are not given here.

Assays:
[1] = Stability of buserelin in pig plasma (autosampler, benchtop, freeze–thaw); type: in vitro ADME; conditions: for Stability, Accuracy Mean ± SD: pig plasma, UPLC-MS/MS
Description: (§1) Selectivity has been assessed by comparing the chromatograms of blank plasma samples and those of corresponding items with buserelin to exclude the interfering peaks. The calibration curve was established by spiking the blank matrix with known concentration of buserelin. Limit of detection (LOD) and Limit of quantification (LOQ) were determined as the concentrations of buserelin which produced signal/ noise ratio of 3 and 10, respectively. For linearity of this method, calibration curves were generated by least squares regression method with a weighting factor and regression coefficient. Recovery was determined by comparing the analytical results of the extracted quality control (QC) samples with pure standard solution. The accuracy was assessed as the percentage of the measured concentration to the nominal standard concentration. The precision was expressed by coefficient of variation. Stability was assessed by autosampler, benchtop, freeze–thaw, and stock solution test. The matrix effect was obtained with the area of post-extraction blank plasma samples added with buserelin at two levels with the equivalent concentration standard solutions that added with initiate mobile phase.

[2] = dogs, cited from earlier work
From the text: High plasma concentration, high bonding rate, means more drugs cannot across the membrane and barrier. Therefore, binding changes can affect the distribution of drugs. Because protein binding of buserelin is about 15% [2], it is proportional to the body volume and body weight and animals using in this study had larger volume of body water or extracellular water. It has been repo ...

[3] = Plasma pharmacokinetics of buserelin after i.m. administration in pigs; type: in vivo; conditions: for MRT: pig, 1 mg per pig
Description: The UPLC-MS/MS system (Waters Acquity UPLC and Waters Quattro Premier, Waters Co., USA) and the chromatographic column (Agilent Poroshell 120 EC-C18, 4.6 × 100 mm, 2.7 µm) were used in this study. The separation was performed with 0.1% formic acid in water (mobile phase solvent A) and 0.1% formic acid in acetonitrile (solvent B) with a flow rate of 0.6 mL/min. The gradient elution program was optimized as follow: 75% A (0–0.5 min), 10% A (5–7 min) 75% A (7.1–10 min). The sample was injected at a volume of 5 µL at 30℃. The mass spectrometer was operated in the positive ion detection mode with the capillary voltage set at 5.5 kV and the source temperature was 550 ℃. Others parameters were as follows: nebulizer gas pressure was 55 psi, ion source gas pressure was 60 psi, curtain gas pressure was 30 psi, declustering potential was 68 V, entrance potential was 10 V, and collision cell exit potential was 13 V.
Five healthy adult female Danish Landrance × Yorkshire × Duroc pigs (100–120 days, 50–60 kg, Ningbo Kuangdai Husbandry Co., Ltd. Ningbo China) and five healthy adult female Holstein cows (1.5–2 years, 440–500 kg, Ningbo Milk Group Co., Ltd. Ningbo China) were randomly selected to use in this research. All animals were examined by a local veterinarian with regard to physical, hematologic, and biochemical conditions during the two-week adaptation period. The two protocols used in this study were reviewed and approved by the Institutional Animal Care and Use Committee of China Agricultural University (pigs: 11605–20-D-007; cows: 11605–20-B-003). Buserelin injection solution (0.5 mg/mL, 10 mL) was acquired from Ningbo Sansheng Pharmaceutical Company. In order to avoid introducing bias results from feeding, each animal in the study fasted for approximately 12 h. Each pig received 1 mg buserelin injection solution (about 0.018 mg/kg), and each cow received 3 mg (about 0.0064 mg/kg). During the entire experiment, water was available ad libitum. Adverse symptoms were recorded and evaluated. Blood samples of 5 mL were collected into heparinized tube (pigs: anterior vena cava; cows: vena jugularis interna) at 0, 0.083, 0.167, 0.333, 0.5, 0.75, 1, 1.5, 2, 3, 4, 5, 6, 7, and 8 h after i.m. administration. The blood samples were centrifuged for 5 min at 2775 × g. Plasma samples were stored in -20 ℃ until analysis (within 21 days of collection).
Frozen plasma samples were thawed and vortexed, and 500 µL plasma and 1 mL 0.1% formic acid in acetonitrile were mixed together. After 10 min ultrasonic treatment, the samples were centrifuged for 10 min at 11,100 × g. The upper layer was collected and the remainder was treated twice. These two supernatants were added together, the samples were evaporated via nitrogen gas at 40 ℃, and redissolved in 2.5 mL 0.1% formic acid in acetonitrile-0.1% formic acid in water (1:3 v/v). After filtered through a 0.22 µm microbore cellulose membrane, the samples were collected and bottled to UPLC-MS/MS system for analysis.
Plasma concentrations of buserelin were analyzed using the established method, and the pharmacokinetic parameters were calculated via a non-compartmental analysis model 200 in WinNonlin software (WinNolin 8.1.0 Certara, Pharsight, Mountain View, CA, USA) and expressed in mean ± standard deviation (SD), and no statistical tests were applied.

[4] = Stock solution stability test of buserelin; type: physicochemical; conditions: stock solution in methanol, concentration 100 ng/mL, UPLC-MS/MS
Description: A standard stock solution (1 mg/mL) was prepared by dissolving 2 mg standard buserelin in 2 mL methanol. This solution was stored in brown glass bottles at -20 ℃. Working solutions were prepared by diluting the stock solution with methanol.
as §1, with “The matrix effect was obtained with the area of post-extraction blank plasma samples added with buserelin at two levels with the equivalent concentration standard solutions that added with initiate mobile phase.” left out

[5] = Stability of buserelin in cow plasma (autosampler, benchtop, freeze–thaw); type: in vitro ADME; conditions: UPLC-MS/MS
Description: as §1

[6] = female, Danish Landrance × Yorkshire × Duroc, im, single i.m. dose 1 mg per pig, plasma, mean ± SD, n = 5
[7] = single i.m. dose 1 mg per pig, plasma, mean ± SD, n = 5

Which results are given for `CCNC(=O)[C@@H]1CCCN1C(=O)[C@H](CCCNC(=N)N)NC(=O)[C@H](CC(C)C)NC(=O)[C@@H](COC(C)(C)C)NC(=O)[C@H](Cc1ccc(O)cc1)NC(=O)[C@H](CO)NC(=O)[C@H](Cc1c[nH]c2ccccc12)NC(=O)[C@H](Cc1cnc[nH]1)NC(=O)[C@@H]1CCC(=O)N1` [buserelin, Buserelin]?
Stability, Accuracy Mean ± SD ([1]; autosampler, concentration 0.5 ng/mL): 0.51 ± 0.04; Stability, Accuracy Mean ± SD ([1]; autosampler, concentration 20 ng/mL): 19.70 ± 2.32; Stability, Accuracy Mean ± SD ([1]; benchtop, concentration 0.5 ng/mL): 0.47 ± 0.02; Stability, Accuracy Mean ± SD ([1]; benchtop, concentration 20 ng/mL): 19.72 ± 1.61; Stability, Accuracy Mean ± SD ([1]; freeze–thaw, concentration 0.5 ng/mL): 0.51 ± 0.04; Stability, Accuracy Mean ± SD ([1]; freeze–thaw, concentration 20 ng/mL): 19.95 ± 1.12; Stability during autosampler, benchtop, freeze–thaw, and stock solution test ([1]; summary statement for pig plasma, cow plasma and stock solution (Table 3)): stable; clearance ([2]; 5 mg per dog i.v. injection ref 18): 1.7 ± 0.10 mL/min/kg; tmax ([2]; s.c. at a dose of 3.3 mg ref 18): 4 h; Vd ([2]; single dose 5 mg i.v. ref 18): 0.0501 ± 0.0024 L/kg; t1/2 ([2]; single dose of 5 mg i.v. injection ref 18): 0.94 ± 0.0163 h; tmax ([3]; female, Danish Landrance × Yorkshire × Duroc, im, single i.m. dose 1 mg per pig (about 0.018 mg/kg), plasma, UPLC-MS/MS, non-compartmental, mean ± SD, n = 5): 0.57 ± 0.18 h; AUC(0-t) ([3]; female, Danish Landrance × Yorkshire × Duroc, im, single i.m. dose 1 mg per pig, plasma, 0 to last measurement point, mean ± SD, n = 5): 25 ± 6.93 ng·h/mL; Cmax ([3]; female, Danish Landrance × Yorkshire × Duroc, im, single i.m. dose 1 mg per pig, plasma, UPLC-MS/MS, non-compartmental, mean ± SD, n = 5): 11 ± 2.04 ng/mL; AUC(0-inf) [3, 6]: 25.8 ± 6.75 ng·h/mL; CL/F [3, 6]: 686 mL/min; Vd/F [3, 6]: 80.5 ± 43.9 L; half-life ([3]; female, Danish Landrance × Yorkshire × Duroc, im, single i.m. dose 1 mg per pig, plasma, non-compartmental, mean ± SD, n = 5, read-out: t1/2 (elimination half-time) (converted)): 1.29 ± 0.4 h; MRT ([3]; female, Danish Landrance × Yorkshire × Duroc, plasma, im, single i.m. dose 1 mg per pig, plasma, mean ± SD, n = 5, read-out: MRT0-t): 2.13 ± 0.27 h; MRT ([3]; female, Danish Landrance × Yorkshire × Duroc, plasma, im, single i.m. dose 1 mg per pig, plasma, mean ± SD, n = 5, read-out: MRT0-∞): 2.35 ± 0.23 h; Cmax/D ([3]; single i.m. dose 1 mg per pig (about 0.018 mg/kg), rate of Cmax to dosage, mean ± SD, n = 5): 610.19 ± 79.93 ng/mL/mg/kg; Adverse effects ([3]; single i.m. dose 1 mg per pig, n = 5): No adverse effects were observed; AUMClast [3, 7]: 59.59 ± 16.54 h × h × ng/mL; ka (absorption rate constant) [3, 7]: 0.48 ± 0.07 h⁻¹; Stock solution stability, Mean ± SD ([4]; column Cow): 2.51 ± 0.05 Peak area (10^5); Stock solution stability, Mean ± SD ([4]; column Pig): 2.50 ± 0.05 Peak area (10^5); Stability, Accuracy Mean ± SD ([5]; autosampler, concentration 0.25 ng/mL): 0.24 ± 0.01; Stability, Accuracy Mean ± SD ([5]; autosampler, concentration 4 ng/mL): 3.90 ± 0.30; Stability, Accuracy Mean ± SD ([5]; benchtop, concentration 0.25 ng/mL): 0.25 ± 0.02; Stability, Accuracy Mean ± SD ([5]; benchtop, concentration 4 ng/mL): 3.87 ± 0.41; Stability, Accuracy Mean ± SD ([5]; freeze–thaw, concentration 0.25 ng/mL): 0.26 ± 0.02; Stability, Accuracy Mean ± SD ([5]; freeze–thaw, concentration 4 ng/mL): 3.95 ± 0.34
